Data: patent publication US20240230626A9, “METHOD FOR SCREENING POTENTIAL THERAPEUTIC AGENTS” (UNIVERSITEIT ANTWERPEN, priority 2021, published 2024)

Tested on: hPSC21/MiaPaca2 co-culture
Test: Co-culture of RFP-labelled MiaPaca2 cancer cells and GFP-labelled hPSC21 stellate cells, kinetic fluorescence imaging
Assay type: cell-based, Human
From the text: Pancreatic ductal adenocarcinoma (PDAC) MiaPaca2 cancer cells were transduced with Nuclight Red lentiviral reagent to stably express RFP. Human pancreatic stellate cells 21 (hPSC21) were transduced with the Nuclight Green lentiviral reagent to stably express GFP. Both cell lines were cultures in a 2:1 hPSC21/MiaPaca2 ratio in a 384-well ultra-low attachment plate and treated with the Rho-kinase inhibitor Y-27632, an inducer of a cancer associated fibroblast (CAF) like phenotype of stellate cells (Li et al., Aging, 2020). The cells were incubated at 37° C./5CO2 in the Tecan Spark Cyto multimode plate reader with imaging capabilities and BF, red and green fluorescent images were taken every hour for 48 hours.

C[C@@H](N)[C@H]1CC[C@H](C(=O)Nc2ccncc2)CC1 [Y-27632]
morphology versus control sample (2:1 hPSC21/MiaPaca2, 384-well ultra-low attachment plate, imaged every hour for 48 hours (FIG. 7D)): activation and migration of hPSC21 towards the PDAC cancer cells | velocity of the objects inside the well (2:1 hPSC21/MiaPaca2 co-culture, imaged every hour for 48 hours (FIG. 7B)): increased | number of merges of the objects inside the well (2:1 hPSC21/MiaPaca2 co-culture, imaged every hour for 48 hours (FIG. 7C)): increased
